The text below walks through data of publication PMC8305768, “Design, Synthesis and Antiparasitic Evaluation of Click Phospholipids” (Molecules, 2021).

For data set [1], the system named is L. donovani strain BPK190 amastigotes. Kind of data set: Activity against L. donovani intramacrophage amastigotes (bone marrow-derived macrophages, qPCR). To be noted: Leishmania donovani, Macrophage, infected bone marrow-derived macrophages, 48 h, read-out: Parassite Load Reduction (%). The format is cell-based, Leishmania donovani. As to the method: L. donovani strain BPK 190 [55] was cultivated at 25 °C in modified Medium199 (Sigma-Aldrich, with 20% heat-inactivated FCS, 40 mM HEPES pH 7.4, 0.2% NaHCO3, 100 μM adenin, 1.2 μg/mL 6-biopterin and 10 μg/mL haem, with 1 × Pen/Strep/l-glutamine (Sigma, Saint Louis, MI, USA), pH 7.0).
Activity against L. donovani strain BPK190 was tested in vitro using bone marrow-derived macrophages as host cells. Infection was established for 24 h prior to the addition of compounds from 10 mM stocks in DMSO. Parasite load was determined 48 h later by quantifying Leishmania actin DNA relative to mouse actin DNA using real time qPCR as described.
In general terms: Real-time PCR tracks product formation cycle by cycle.

Data set [2] can be described thus: Cytotoxicity against THP-1 macrophages (MTT). As to conditions: human, PMA-differentiated THP-1 macrophages, read-out: Toxicity CC50 ± SD Or CC50 Interval Estimation. It counts as cell-based. The method, then: The effect of compounds selected compounds on THP-1-derived macrophages was assessed by the colorimetric MTT assay (3-(4,5-dimethylthiazol-2-yl)-2,5-diphenyl tetrazolium bromide). Briefly, 1 × 10^5 THP-1 cells/mL were differentiated into macrophages by addition of 20 ng/mL of phorbol-myristate 13-acetate (PMA, Sigma, Saint Louis, MI, USA) for 18 h, followed by replacement with fresh medium for 24 h. Cells were incubated with 100 µL of compounds ranging from 100 to 1 µM after dilution in the RPMI complete medium containing a maximum amount of 1% DMSO. After incubation for 72 h, the medium was removed and 100 µL of 0.5 mg/mL MTT solution diluted in RPMI was added. Plates were incubated for an additional 4 h to allow viable cells to convert MTT into a purple formazan product. Solubilization of formazan crystals was achieved by the addition of 2-propanol and absorbance was read at 570 nm using a Synergy 2 Multi-Mode Reader (Biotek, Winooski, VT, USA). Cytotoxicity was evaluated by the determination of the CC50 value (drug concentration that reduced the percentage of viable cells in 50%) and calculated by non-linear regression analysis using GraphPad Prism version 8.1.1 for Windows (GraphPad Software, San Diego, CA, USA).

In data set [3] the test system is T. cruzi Y strain intracellular amastigotes. Kind of data set: Activity against T. cruzi Y strain intracellular amastigotes (HG39 cell-line, parasite load). It counts as cell-based. To be noted: Trypanosoma cruzi, read-out: Parassite Load Reduction (%). The method, then: T. cruzi epimastigotes (Y strain) were obtained by axenic cultivation in the LIT medium, supplemented with 10% FBS (Cultilab, São Paulo, Brazil). Cultures were maintained at […] for 4–5 days until they reached the log growth phase. New cultures were made every 4 days from the initial inoculum of 2 × 10^6 parasites/mL. T. cruzi trypomastigotes (Y strain) were maintained in culture by the infection of LLC-MK2 (ATTC-CCL7) epithelial cells. This cell line was cultured in […] tissue culture bottles (TPP) in RPMI 1640 medium (Gibco), (Thermo Fischer Scientific, Carlsbad, CA, USA) supplemented with 10% FBS (Gibco) (Thermo Fischer Scientific, Carlsbad, CA, USA). Cultures were maintained at 37 °C under 5% CO2 atmosphere, and RPMI 1640 medium and SFB were exchanged every 48 h. After confluence, the cultures were treated with 1 mL of a mixture of trypsin and versene (Sigma, São Paulo, Brazil) (0.2 and 0.002%, respectively). After 24 h, a subconfluence culture was infected with the trypomastigotes in the approximate proportion of 10:1 parasites/cell. From five to seven days post infection, the trypomastigote stage was obtained from the culture supernatant. Alternatively (Figure 2), T. cruzi strain Y was maintained as previously described.

The next data set has as its target T1, CYP1A2 (Homo sapiens, UniProt P05177).
T1 construct: purchased Corning Inc; host or cells: baculovirus-infected insect cells
T1 sequence (P05177 2-516 limits assumed): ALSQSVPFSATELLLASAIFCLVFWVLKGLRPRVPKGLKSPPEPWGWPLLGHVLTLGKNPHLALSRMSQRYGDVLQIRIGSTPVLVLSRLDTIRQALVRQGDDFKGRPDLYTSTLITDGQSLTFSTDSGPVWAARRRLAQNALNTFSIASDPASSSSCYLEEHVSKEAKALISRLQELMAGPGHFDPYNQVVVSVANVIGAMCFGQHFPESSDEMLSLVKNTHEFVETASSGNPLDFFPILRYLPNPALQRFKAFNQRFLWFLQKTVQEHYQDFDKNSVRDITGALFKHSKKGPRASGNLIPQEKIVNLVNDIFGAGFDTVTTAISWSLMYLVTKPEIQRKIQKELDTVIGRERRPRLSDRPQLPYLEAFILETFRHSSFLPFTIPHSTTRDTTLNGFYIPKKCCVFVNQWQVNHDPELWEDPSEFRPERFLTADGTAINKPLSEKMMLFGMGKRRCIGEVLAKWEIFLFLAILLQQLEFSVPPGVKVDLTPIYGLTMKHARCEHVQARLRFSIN
The data set is described as follows: Cytochrome P450 inhibition assay (P450-Glo) CYP1A2. The format is in vitro ADME. As to conditions: compounds 10 μM; miltefosine 10 μM or 1 μM. From the text:
Cytochrome (CYP) P450 inhibition assay: These assays made use of microsomal preparations of CYP450 (1A2, 2C9, 2C19, 2D6 and 3A4) from baculovirus-infected insect cells (Corning Inc., Corning, NY, USA) and cytochrome c reductase (and cytochrome b5 for CYP450 3A4). For detection of CYP450 activity, the luminescence-based P450-Glo (Promega Corp., Madison, WI, USA) assay system was used that contained a luminogenic CYP450 substrate, lyophilized luciferin detection reagent and reconstitution buffer. The substrates were luciferin derivatives of CYP450-specific substrates that produce (4S)-4,5-dihydro-2-(6-hydroxybenzothiazolyl)-4-thiazolecarboxylic acid (D-luciferin) after cleavage by CYP450 (CYP450 3A4, luciferin-IPA; CYP450 2C19, luciferin-H EGE; CYP450 2C9, luciferin-H; CYP450 2D6, luciferin-ME EGE; CYP450 1A2, luciferin-1A2). CYP450 reactions were initiated by addition of the NADPH regeneration system to the enzyme–substrate mixture with the luciferin detection reagent stopping the reaction and the D-luciferin being converted to oxyluciferin under the production of light being proportional to the CYP450 activity. The CYP450 assays were performed using the Tecan Fluent liquid-handling automation platform (Tecan Group Ltd., Mannedorf, Switzerland) in the 384-well assay format. Compounds were added into an empty 384-well plate (100 nL/well in 1% v/v DMSO) using the Echo 550 Liquid Handler followed by the addition of 5 μL/well of the CYP450/substrate mixture and incubation for 30 min at 37 °C, after which the reaction was initiated by the addition of the 5 μL/well NADPH regeneration system. After a further 30-min incubation at 37 °C, the CYP450 reaction was stopped and the luciferase reaction was simultaneously initiated by addition of 10 μL/well of luciferin detection reagent, followed by an additional 30-min incubation at 37 °C. The luminescence signal was detected using an Infinite M1000 PRO plate reader (Tecan Group Ltd., Mannedorf, Switzerland). The NCs yielded 0% inhibition (1% v/v DMSO) and standard CYP450 specific inhibitors were used as positive controls, yielding 100% inhibition (CYP450 1A2, alpha-naphthoflavone; CYP450 2C9, sulfaphenazole; CYP450 2C19, troglitazone; CYP450 2D6, quinidine; CYP450 3A4, ketoconazole).
Data analysis: The screening data were obtained in triplicate and analysed using ActivityBase (IDBS, Guildford, UK), and outlier elimination in the control wells was performed using the 3-sigma method. Unless stated, dose–response experiments were performed in the 11-point format with the IC50 value, Hill slope, minimum signal and maximum signal for each dose–response curve obtained using a four-parameter logistic fit in the XE module of ActivityBase (IDBS).

The test system of data set [4] is T. b. brucei L427 WT bloodstream form. Kind of data set: Activity against T. brucei bloodstream forms (resazurin-based assay). The format is cell-based. As to conditions: Trypanosoma brucei, 72 h. As to the method:
Trypanosoma brucei brucei Lister 427 bloodstream forms were grown at 37 °C, 5% CO2 in complete HMI-9 medium supplemented with 10% foetal calf serum (FCS) and 100 UI/mL of penicillin/streptomycin. […] The efficacy of compounds against T. brucei bloodstream forms was evaluated using a modified resazurin-based assay previously described. Mid-log bloodstream forms were added to an equal volume of serial dilutions of compounds in supplemented complete HMI-9 medium at a final cell density of 5 × 10^3/mL. Following incubation for 72 h at 37 °C 5% CO2, 20 μL of a 0.5 mM resazurin solution was added and plates were incubated for a further 4 h under the same conditions. Fluorescence was measured at 540 nm and 620 nm excitation and emission wavelength, respectively, using a Synergy 2 Multi-Mode Reader (Biotek, Winooski, VT, USA).
(Resazurin is reduced to fluorescent resorufin, in cell work by metabolically active cells.)

Counter-ions that a name gives are not always drawn. Some results are limits rather than exact numbers.

Consider `C[N+](C)(C)CCOP(=O)([O-])OCCCCCCCCCCCn1cc(CCCCCCCCC(=O)OCc2ccccc2)nn1` [Compound 30, 11-(4-(9-(benzyloxy)-9-oxononyl)-1H-1,2,3-triazol-1-yl)undecyl (2-(trimethyl ammonio)ethyl) phosphate inner salt], for which the inhibition of growth at 5 µM in data set [1] is 0%. Besides, the CC50 (commonly the concentration giving 50% cytotoxicity) at 72 h in data set [2] was greater than 100 µM. Further, in data set [3], the inhibition of growth at 10 µM was determined as 69.7%. The “% inhibition ± SD at 10 μΜ CYP1A2” value at CYP1A2 is “–2.91%”.

Take `N=C(N)c1ccc(OCCCCCOc2ccc(C(=N)N)cc2)cc1` [Pentamidine, reference compound]: in data set [4] (read-out: Dose Response Curves IC50 ± SD), the IC50 – broadly, the point on the concentration scale where inhibition reaches its midpoint – came out at 0.00155 ± 0.00024 µM.

As to `C[N+](C)(C)CCOP(=O)([O-])OCCCCCCCCCCCn1cc(CCCCCCCCN)nn1` [Compound 36, 11-(4-(8-aminooctyl)-1H-1,2,3-triazol-1-yl)undecyl (2-(trimethylammonio)ethyl) phosphate inner salt], in data set [1], the inhibition of growth at 5 µM was found to be 20.3%. Further, the half-maximal cytotoxic concentration (CC50) at 72 h in data set [2] is greater than 100 µM. Further, the inhibition at 10 µM in data set [4] (10 μM, read-out: Single Dose Assay 10μM Mean Inhibitory Activity (%) ± SD) amounted to 30 ± 7%. Besides, the inhibition of growth at 10 µM in data set [3] turned out to be 0%. Further, at CYP1A2, the “% inhibition ± SD at 10 μΜ CYP1A2” value was determined as 3.18%.

With `CC1CS(=O)(=O)CCN1/N=C/c1ccc([N+](=O)[O-])o1` (centres unmarked) [Nifurtimox, reference compound], the inhibition of growth at 10 µM in data set [3] amounted to 81.2%.
